# Earlier results in patent US6881426B2, “Echinacea angustifolia extracts” (priority 2002, dated 2005).
# Tested on: hyaluronidase
substance,measurement,value
echinacoside,hyaluronidase inhibition,inhibition
